From paper PMC6475490 (Psychopharmacology, 2018)
“Also recorded” adds a separate entry of the source.

Key:
DAT, SERT, and NET = format: biochemical, rat; details: from DAT, SERT EC50 and NET screening data
rats [1] = details: ref Glennon et al. 1987; cited from earlier work
baboons = details: ref Kaminski and Griffiths 1994; cited from earlier work
DAT = DAT (Rattus norvegicus, UniProt P23977); test: DAT-mediated [3H]DA release assay in rat brain synaptosomes; format: biochemical
NET = NET (Rattus norvegicus, UniProt Q63380); test: NET-mediated [3H]MPP+ release screen in rat brain synaptosomes; format: biochemical; details: based on % release at 10 µM screening data
NET, sequence (Q63380 1-617): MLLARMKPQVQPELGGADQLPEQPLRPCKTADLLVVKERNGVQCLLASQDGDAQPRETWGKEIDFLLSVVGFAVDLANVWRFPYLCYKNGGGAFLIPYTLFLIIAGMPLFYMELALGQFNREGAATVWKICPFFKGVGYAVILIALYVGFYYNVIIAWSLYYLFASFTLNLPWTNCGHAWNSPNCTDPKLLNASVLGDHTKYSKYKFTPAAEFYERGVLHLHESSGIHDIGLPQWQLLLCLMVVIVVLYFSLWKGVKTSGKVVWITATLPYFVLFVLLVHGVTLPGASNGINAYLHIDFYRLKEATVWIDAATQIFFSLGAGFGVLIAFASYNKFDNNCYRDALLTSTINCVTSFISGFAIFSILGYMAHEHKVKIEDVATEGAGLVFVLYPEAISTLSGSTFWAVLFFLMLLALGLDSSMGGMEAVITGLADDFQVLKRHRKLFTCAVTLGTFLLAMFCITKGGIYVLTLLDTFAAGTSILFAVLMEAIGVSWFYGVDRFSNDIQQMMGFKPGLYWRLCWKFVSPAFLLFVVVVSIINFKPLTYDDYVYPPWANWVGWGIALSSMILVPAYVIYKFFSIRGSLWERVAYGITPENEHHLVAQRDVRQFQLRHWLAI

SERT = SERT (Rattus norvegicus, UniProt P31652); test: SERT-mediated [3H]5-HT release assay in rat brain synaptosomes; format: biochemical; details: relative to methcathinone 1
SERT, sequence (P31652 whole entry): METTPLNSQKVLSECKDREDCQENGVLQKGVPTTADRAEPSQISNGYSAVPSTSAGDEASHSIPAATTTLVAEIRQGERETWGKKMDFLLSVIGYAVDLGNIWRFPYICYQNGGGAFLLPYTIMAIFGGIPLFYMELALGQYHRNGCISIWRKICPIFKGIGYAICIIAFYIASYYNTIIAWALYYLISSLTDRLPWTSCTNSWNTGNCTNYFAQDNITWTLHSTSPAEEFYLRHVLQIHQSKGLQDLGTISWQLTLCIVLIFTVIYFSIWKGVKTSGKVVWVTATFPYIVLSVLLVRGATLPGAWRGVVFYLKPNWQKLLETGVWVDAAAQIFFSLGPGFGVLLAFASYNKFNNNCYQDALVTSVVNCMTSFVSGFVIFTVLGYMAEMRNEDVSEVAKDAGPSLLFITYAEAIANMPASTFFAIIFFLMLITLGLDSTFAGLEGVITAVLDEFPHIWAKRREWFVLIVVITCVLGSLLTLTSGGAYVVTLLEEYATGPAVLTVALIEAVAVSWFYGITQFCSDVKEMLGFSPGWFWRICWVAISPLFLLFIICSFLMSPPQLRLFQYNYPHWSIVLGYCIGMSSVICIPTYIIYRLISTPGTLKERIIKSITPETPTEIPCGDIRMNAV

rats [2] = details: ref Gatch et al. 2015; cited from earlier work
transporters = details: CF3 analogs; ref Cozzi et al. 2013; cited from earlier work

DAT, sequence (P23977 whole entry): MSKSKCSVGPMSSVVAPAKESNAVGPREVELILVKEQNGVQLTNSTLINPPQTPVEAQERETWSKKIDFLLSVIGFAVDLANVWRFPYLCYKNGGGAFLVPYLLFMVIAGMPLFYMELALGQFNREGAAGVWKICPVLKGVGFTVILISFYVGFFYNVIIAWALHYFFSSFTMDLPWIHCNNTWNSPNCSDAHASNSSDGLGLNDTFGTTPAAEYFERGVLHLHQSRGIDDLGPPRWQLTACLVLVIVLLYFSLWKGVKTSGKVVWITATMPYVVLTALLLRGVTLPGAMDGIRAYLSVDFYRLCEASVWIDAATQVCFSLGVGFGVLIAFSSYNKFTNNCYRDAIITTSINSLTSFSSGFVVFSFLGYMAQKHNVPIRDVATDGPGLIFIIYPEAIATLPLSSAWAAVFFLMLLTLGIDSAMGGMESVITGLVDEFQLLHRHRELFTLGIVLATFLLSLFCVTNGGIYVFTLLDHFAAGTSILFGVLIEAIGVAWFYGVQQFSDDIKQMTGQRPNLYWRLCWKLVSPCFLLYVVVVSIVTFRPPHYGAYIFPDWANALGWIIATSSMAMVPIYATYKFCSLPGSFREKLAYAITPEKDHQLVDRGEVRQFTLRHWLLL

Row | Compound | transporter selectivity profile in words (DAT, SERT, and NET) | fold less potent at DA release (DAT) compared to 1 (DAT; relative to methcathinone 1) [fold] | fold more potent at 5-HT release (SERT) compared to 1 (SERT) [fold] | other results
1 | CNC(C)C(=O)c1ccccc1 (centres unmarked) [Compound 1, methcathinone] | DAT selective | – | – | substitution for amphetamine in drug discrimination (rats [1]): substitute for amphetamine; self-administration (baboons): dose-dependently maintain self-administration
2 | Cl.NCC(=O)c1ccccc1 [Compound 6, phenacylamine, reference compound] | DAT selective | 4.2 | – | –
3 | CNC(C)C(=O)c1ccccc1F (centres unmarked) [Compound 7] | DAT selective | – | – | –
4 | CNC(C)C(=O)c1ccccc1C(F)(F)F (centres unmarked) [Compound 8] | selective NET releaser; also recorded: selective NE releasers | – | – | NET / NE release activity in words (NET): appears active as a NE releaser
5 | CNC(C)C(=O)c1ccccc1OC(F)(F)F (centres unmarked) [Compound 9] | – | – | – | NET / NE release activity in words (NET): weak
6 | CNC(C)C(=O)c1ccccc1C (centres unmarked) [Compound 10] | DAT selective | 2 | 12 | –
7 | CNC(C)C(=O)c1cccc(Br)c1 (centres unmarked) [Compound 11] | – | – | 31 | fold more potent at DA release (DAT) compared to 1 (DAT; relative to methcathinone 1): ~2 fold
8 | CNC(C)C(=O)c1cccc(F)c1 (centres unmarked) [Compound 13, 3-fluoromethcathinone] | highly potent, DAT selective compound | – | 2.9 | locomotor stimulation (rats [2]): induce locomotor stimulation
9 | CNC(C)C(=O)c1cccc(C(F)(F)F)c1 (centres unmarked) [Compound 14] | SERT/NET selective releasers; also recorded: selective 5-HT releasers | 26 | 14 | –
10 | CNC(C)C(=O)c1cccc(C)c1 (centres unmarked) [Compound 16] | – | – | 14.6 | –
11 | CNC(C)C(=O)c1ccc(Br)cc1 (centres unmarked) [Compound 19] | – | – | 100 | –
12 | CNC(C)C(=O)c1ccc(F)cc1 (centres unmarked) [Compound 21] | – | 2.4 | 2.9 | –
13 | CNC(C)C(=O)c1ccc(C(F)(F)F)cc1 (centres unmarked) [Compound 22] | most serotonergic; also recorded: low DAT selectivity | – | 15 | EC50 (DAT; read-out: DA release EC50, bound stated): > 4 µM; relative selectivity (DAT selectivity) (transporters): < 0.04
14 | CNC(C)C(=O)c1ccc(C)cc1 (centres unmarked) [Compound 24, mephedrone, reference compound] | – | – | 36 | –
15 | CNC(C)C(=O)c1cccc2ccccc12 (centres unmarked) [Compound 26, 1-naphthylmethcathinone] | – | – | 198 | –
16 | CNC(C)C(=O)c1c[nH]c2ccccc12 (centres unmarked) [Compound 28, 3-indoylmethcathinone] | – | ~2 | 103 | NET / NE release activity in words (NET): much weaker than its DAT release potency
17 | CNC(C)C(=O)c1ccc(C)c(Cl)c1 (centres unmarked) [Compound 31] | – | 2.5 | 102 | –
